Reference: US20220130493A1, “METHOD AND SYSTEMS FOR PHYTOMEDICINE ANALYTICS FOR RESEARCH OPTIMIZATION AT SCALE” (GBS Global BioPharma, Inc., priority 2020, published 2022)

Experiments:
TRPV1 = assay: Whole cell patch clamp electrophysiology of TRPV1 conductance; type: cell-based
Text: FIG. 25C provides data on the functional effects of terpenes at the nociceptive ion channel TRPV1.

[1] = in vivo; cited from earlier work

SMILES: C=CC(=C)CCC=C(C)C [myrcene]
- TRPV1 conductance (TRPV1): activate TRPV1 conductance

SMILES: CN1C[C@H](C(=O)N[C@]2(C)O[C@@]3(O)[C@@H]4CCCN4C(=O)[C@H](Cc4ccccc4)N3C2=O)C=C2c3cccc4[nH]cc(c34)C[C@H]21 [ergotamine]
- side effects [1]: nausea, vomiting and cardiovascular side effects
